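96-well plates; 48 h exposure; 5 concentrations. Endpoints by linear interpolation between flanking doses. Not reached: highest tested concentration assigned. The concentration for 50% growth inhibition is given as GI50. TGI denotes the concentration required for complete inhibition of growth.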
Key:
Test in all cases: NCI-60 cell line screen, 48 h
OVCAR-3 ovarian = test system: OVCAR-3 ovarian
UACC-62 melanoma = test system: UACC-62 melanoma
HCC-2998 colon = test system: HCC-2998 colon
SN12C renal = test system: SN12C renal
OVCAR-4 ovarian = test system: OVCAR-4 ovarian
SK-MEL-2 melanoma = test system: SK-MEL-2 melanoma
UACC-257 melanoma = test system: UACC-257 melanoma
M14 melanoma = test system: M14 melanoma
NCI-H226 lung = test system: NCI-H226 lung
K-562 leukemia = test system: K-562 leukemia

Compound | TGI (OVCAR-3 ovarian) | TGI (UACC-62 melanoma) | TGI (HCC-2998 colon) | TGI (SN12C renal) | TGI (OVCAR-4 ovarian) | TGI (SK-MEL-2 melanoma) | TGI (UACC-257 melanoma) | TGI (M14 melanoma) | TGI (NCI-H226 lung) | TGI (K-562 leukemia) | GI50 (OVCAR-3 ovarian) | GI50 (UACC-62 melanoma) | GI50 (HCC-2998 colon) | GI50 (SN12C renal) | GI50 (OVCAR-4 ovarian) | GI50 (SK-MEL-2 melanoma) | GI50 (UACC-257 melanoma) | GI50 (M14 melanoma) | GI50 (NCI-H226 lung) | GI50 (K-562 leukemia)
CCCCCCCCCCCC(=O)OCC1OC(n2cc(F)c(=O)[nH]c2=O)C(N)C(O)C1O (centres undefined) | > 100 µM | > 100 µM | > 100 µM | > 100 µM | > 100 µM | > 100 µM | > 100 µM | > 100 µM | > 100 µM | > 100 µM | – | – | – | – | – | – | – | – | – | –
CNC1C(O)CC(OC2C/C=C(\C)C/C(C)=C/C=C/CCC(C)CNC(=O)/C=C/C=C/C2C)OC1C (centres undefined) | 1.78 µM | 0.855 µM | 1.42 µM | 1.94 µM | 0.668 µM | 2.82 µM | 1.65 µM | 0.773 µM | 43.8 µM | 0.184 µM | – | – | – | – | – | – | – | – | – | –
CCOC(=O)c1cc2ncccc2c2ccccc12 | > 100 µM | > 100 µM | > 100 µM | > 100 µM | > 100 µM | > 100 µM | > 100 µM | > 100 µM | > 100 µM | > 100 µM | – | – | – | – | – | – | – | – | – | –
Nc1nc(N)c(-c2ccc(Cl)cc2)c(CCC(=O)Nc2cccc(C(F)(F)F)c2)n1 | > 100 µM | > 100 µM | > 100 µM | > 100 µM | > 100 µM | > 100 µM | > 100 µM | > 100 µM | > 100 µM | > 100 µM | – | – | – | – | – | – | – | – | – | –
CN(C)CC1CCn2c(c(C3=C(c4cn(C)c5ccccc45)C(=O)NC3=O)c3ccccc32)C1 (centres undefined) | 8.15 µM | 7.49 µM | 8.93 µM | 8.11 µM | 9.3 µM | 7.82 µM | 7.52 µM | 8.04 µM | 9.38 µM | 10.5 µM | 3.91 µM | 3.91 µM | 4.65 µM | 3.89 µM | 4.32 µM | 3.96 µM | 3.93 µM | 4.11 µM | 4.01 µM | 4.97 µM
COc1ccc(F)cc1C(=O)c1cnc(NC2CCN(S(C)(=O)=O)CC2)nc1N | 14.6 µM | 8.95 µM | > 25 µM | > 25 µM | > 21.4 µM | 9.76 µM | 15.5 µM | > 25 µM | > 20.6 µM | > 25 µM | 4.15 µM | 2.75 µM | 3.55 µM | 4.92 µM | 5.7 µM | 3.48 µM | 4.24 µM | 4.51 µM | 2.56 µM | 6.25 µM
CCOC(=O)C1=C(C)N(NC(=O)c2ccccc2)C2(O)CCCC12C(=O)OCC (centres undefined) | > 100 µM | > 100 µM | > 100 µM | > 100 µM | > 100 µM | > 100 µM | > 100 µM | > 100 µM | > 100 µM | > 100 µM | – | – | – | – | – | – | – | – | – | –
CO[C@H](C(=O)N[C@@H](CCCCNC(=O)OCc1ccccc1)C(=O)OC(C)(C)C)[C@@H]1Cc2cc3cc(OC4CC(OC5CC(O)C(O)C(C)O5)C(O)C(C)O4)c(C)c(O)c3c(O)c2C(=O)[C@H]1OC1CC(OC2CC(OC3CC(C)(O)C(O)C(C)O3)C(O)C(C)O2)C(O)C(C)O1 (some centres undefined) | > 10 µM | 1.7 µM | 3.2 µM | 3.88 µM | > 10 µM | 3.29 µM | 4.01 µM | 2.48 µM | 2.14 µM | > 10 µM | 1.39 µM | 0.369 µM | 0.885 µM | 0.463 µM | 3 µM | 0.942 µM | 0.812 µM | 0.879 µM | 0.673 µM | 0.635 µM
O=C(O)/C(Cl)=C(\Cl)C(=O)Nc1ccccc1 | > 100 µM | > 100 µM | > 100 µM | > 100 µM | > 100 µM | > 100 µM | > 100 µM | > 100 µM | > 100 µM | > 100 µM | – | – | – | – | – | – | – | – | – | –
Cc1ccc(NC(=O)c2ccnc(N3CCCC3)c2)cc1-c1ccc(C(=O)NCC2CC2)cc1 | > 25 µM | > 25 µM | > 25 µM | > 25 µM | > 25 µM | > 25 µM | > 25 µM | > 25 µM | > 25 µM | > 25 µM | > 25 µM | > 25 µM | > 25 µM | > 25 µM | > 25 µM | > 25 µM | > 25 µM | > 25 µM | > 25 µM | > 25 µM
COC(=O)C#Cc1ccc([N+](=O)[O-])cc1 | 2.93 µM | 6.86 µM | 4.32 µM | 3.22 µM | 3.5 µM | 7.98 µM | 7.12 µM | 4.96 µM | 5.72 µM | 12.9 µM | – | – | – | – | – | – | – | – | – | –
COc1cc2c(cc1OC)[C@@]1(C)C(=O)c3cc4c(cc3[C@H]1N(C)C2=O)OCO4 | > 100 µM | > 100 µM | > 100 µM | > 100 µM | > 100 µM | > 100 µM | 91.9 µM | > 100 µM | > 100 µM | > 100 µM | 96.2 µM | 26 µM | 74.7 µM | 82.4 µM | > 100 µM | 40.4 µM | 23.7 µM | 82.6 µM | 44.1 µM | 47.6 µM
CC12CC3CC(C)(C1)CC(N=[N+]=[N-])(C3)C2 | > 100 µM | > 100 µM | > 100 µM | > 100 µM | > 100 µM | > 100 µM | > 100 µM | > 100 µM | > 100 µM | > 100 µM | – | – | – | – | – | – | – | – | – | –
O=C(/C=C\Sc1nccc(C(F)(F)F)n1)c1ccc(Br)cc1 | 30.2 µM | 60.7 µM | 32.6 µM | 43.1 µM | 45.8 µM | > 100 µM | > 100 µM | 35.5 µM | 87.8 µM | 44.1 µM | 14.9 µM | 23.6 µM | 12.5 µM | 18.8 µM | 20.4 µM | > 100 µM | 56.4 µM | 17.9 µM | 26.9 µM | 15 µM
Cc1ccc(S(=O)(=O)N/N=C(\C(=O)Nc2cccc([N+](=O)[O-])c2)c2nc3ccc([N+](=O)[O-])cc3[nH]c2=O)cc1 | > 100 µM | > 100 µM | 69.9 µM | > 100 µM | > 100 µM | > 100 µM | > 100 µM | > 100 µM | > 100 µM | > 100 µM | – | – | – | – | – | – | – | – | – | –
C/C(=C\c1c[nH]c2ccccc12)[N+](=O)[O-] | 24.8 µM | 15.9 µM | 23 µM | 14.4 µM | 21 µM | 20.8 µM | 17.1 µM | 5.65 µM | 30.6 µM | 16.5 µM | 8.57 µM | 4.04 µM | 10.5 µM | 3.53 µM | 7.58 µM | 6.24 µM | 4.89 µM | 2.57 µM | 13.3 µM | 4.03 µM
CN1CCN(Cc2ccc(NC(=O)c3cncc(C#Cc4c(N)ncc5cc(F)ccc45)c3)cc2C(F)(F)F)CC1 | 4.98 µM | 5.18 µM | 11.1 µM | 3.84 µM | 1.38 µM | 6.14 µM | 2.4 µM | 1.11 µM | 8.56 µM | 1.09 µM | 2.43 µM | 1.88 µM | 2.04 µM | 1.39 µM | 0.489 µM | 1.44 µM | 0.975 µM | 0.378 µM | 0.442 µM | 0.005 µM
ON(CCc1ccccn1)Cc1ccccc1 | > 100 µM | > 100 µM | > 100 µM | > 100 µM | > 100 µM | > 100 µM | > 100 µM | > 100 µM | > 100 µM | > 100 µM | – | – | – | – | – | – | – | – | – | –
COc1cccc2c1c1nc3cc(C)c(C)cc3nc1n2CCN(C)C | – | 3.37 µM | 3.65 µM | 11.2 µM | 8.6 µM | 4.39 µM | 4.74 µM | 3.07 µM | 6.45 µM | 9.12 µM | 2.22 µM | 1.7 µM | 1.42 µM | 1.66 µM | 2.06 µM | 1.85 µM | 1.9 µM | 1.24 µM | 1.63 µM | 0.982 µM
O=C(Nc1ccc(Br)c(Cl)c1)c1cc(F)ccc1O | > 50 µM | 2.09 µM | > 22 µM | 8.91 µM | > 50 µM | 2.08 µM | 2.79 µM | 3.1 µM | 2.69 µM | > 50 µM | 0.481 µM | 0.242 µM | 1.63 µM | 0.533 µM | 0.974 µM | 0.558 µM | 0.526 µM | 0.585 µM | 0.651 µM | 0.293 µM
CN=S(=O)(C[C@]1(O)CC2OC1C1OC(C)(C)OC21)c1ccccc1 (some centres undefined) | > 100 µM | > 100 µM | > 100 µM | > 100 µM | > 100 µM | > 100 µM | > 100 µM | > 100 µM | > 100 µM | > 100 µM | – | – | – | – | – | – | – | – | – | –
Cc1c(Cl)ccc2c1NC(=O)C2(O)C1Cc2ccccc2C1=O (centres undefined) | > 100 µM | > 100 µM | > 100 µM | > 100 µM | > 100 µM | > 100 µM | > 100 µM | > 100 µM | > 100 µM | > 100 µM | – | – | – | – | – | – | – | – | – | –
